Laboratory results from ChEMBL document CHEMBL3822388, “In vivo phenotypic drug discovery: applying a behavioral assay to the discovery and optimization of novel antipsychotic agents” (Medchemcomm, 2016).
One block for each molecule: values may come before it. Active and inactive are the calls of the source. The rule behind the calls is not given here.

Assays:
Mus musculus [1] = experiment: Antipsychotic activity in mouse at 30 mg/kg, ip administered 15 mins prior to testing by SmartCube automated system based method relative to standard compound; format: functional
Mus musculus [2] = experiment: Antipsychotic activity in ip dosed mouse administered 15 mins prior to testing by SmartCube automated system based method; format: functional; settings: for minimal effective dose: Mus musculus, ip, read-out: MED
Mus musculus [3] = experiment: Antipsychotic activity in mouse at 3 to 30 mg/kg, ip dosed 15 mins prior to testing by SmartCube automated system based method relative to standard compound; format: functional, organism-based
Cytochrome P450 3A4 = Cytochrome P450 3A4 (Homo sapiens, UniProt P08684); experiment: Inhibition of CYP3A4 in human liver microsomes assessed as reduction in midazolam 1-hydroxylation/testosterone 6beta-hydroxylation by LC-MS/MS analysis; format: ADME
[4] = biological target: D(2) dopamine receptor (Homo sapiens) (UniProt P14416); experiment: Displacement of [3H]methyl-spiperone from human recombinant D2 receptor expressed in HEK293 cells at 10 uM after 60 mins by scintillation counting analysis; format: cell-based
[5] = biological target: Voltage-gated inwardly rectifying potassium channel KCNH2 (Homo sapiens, UniProt Q12809); experiment: Inhibition of human ERG; settings: read-out: IC50
[6] = Protein binding in rat plasma at 5 uM by LC-MS/MS based equilibrium dialysis method; format: ADME, cell-free; settings: read-out: PPB (converted)
[7] = Half life in human liver microsomes at 3 uM in presence of NADPH by LC-MS/MS analysis; format: ADME
Cytochrome P450 2C19 = Cytochrome P450 2C19 (Homo sapiens, UniProt P33261); experiment: Inhibition of CYP2C19 in human liver microsomes assessed as reduction in S-mephenytoin 4-hydroxylation by LC-MS/MS analysis; format: ADME
Mus musculus [8] = experiment: Antipsychotic activity in mouse at 30 mg/kg, ip administered 15 mins prior to testing by SmartCube automated system based method relative to vehicle; format: functional
Cytochrome P450 2D6 = Cytochrome P450 2D6 (Homo sapiens, UniProt P10635); experiment: Inhibition of CYP2D6 in human liver microsomes assessed as reduction in dextromethorphan o-demethylation by LC-MS/MS analysis; format: ADME
[9] = Protein binding in mouse plasma at 5 uM by LC-MS/MS based equilibrium dialysis method; format: ADME, cell-free; settings: read-out: PPB (converted)
[10] = Half life in rat liver microsomes at 3 uM in presence of NADPH by LC-MS/MS analysis; format: ADME
[11] = Half life in mouse liver microsomes at 3 uM in presence of NADPH by LC-MS/MS analysis; format: ADME
CYP1A = CYP1A (Homo sapiens, UniProt P04798+P05177); experiment: Inhibition of CYP1A in human liver microsomes assessed as reduction in ethoxyresorufin o-deethylation by fluorescence assay; settings: probe ethoxyresorufin (O-deethylation)
Cytochrome P450 2C9 = Cytochrome P450 2C9 (Homo sapiens, UniProt P11712); experiment: Inhibition of CYP2C9 in human liver microsomes assessed as reduction in tolbutamide 4-hydroxylation by LC-MS/MS analysis; format: ADME
Sequence of Cytochrome P450 2C9 (P11712 whole entry): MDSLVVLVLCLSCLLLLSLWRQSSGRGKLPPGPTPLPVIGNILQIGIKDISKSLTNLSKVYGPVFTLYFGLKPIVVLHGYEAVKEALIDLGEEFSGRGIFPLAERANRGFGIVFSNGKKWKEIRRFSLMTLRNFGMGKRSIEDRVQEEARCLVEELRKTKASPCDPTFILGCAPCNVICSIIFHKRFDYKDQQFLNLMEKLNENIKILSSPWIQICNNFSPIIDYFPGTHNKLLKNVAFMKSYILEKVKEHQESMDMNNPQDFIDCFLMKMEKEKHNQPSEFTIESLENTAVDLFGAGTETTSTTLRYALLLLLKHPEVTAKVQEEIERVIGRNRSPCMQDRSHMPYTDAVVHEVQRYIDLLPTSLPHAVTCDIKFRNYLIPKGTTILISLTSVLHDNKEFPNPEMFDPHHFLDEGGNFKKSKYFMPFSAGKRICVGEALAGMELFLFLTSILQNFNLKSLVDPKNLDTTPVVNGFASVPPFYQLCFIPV

Sequence of Cytochrome P450 3A4 (P08684 whole entry): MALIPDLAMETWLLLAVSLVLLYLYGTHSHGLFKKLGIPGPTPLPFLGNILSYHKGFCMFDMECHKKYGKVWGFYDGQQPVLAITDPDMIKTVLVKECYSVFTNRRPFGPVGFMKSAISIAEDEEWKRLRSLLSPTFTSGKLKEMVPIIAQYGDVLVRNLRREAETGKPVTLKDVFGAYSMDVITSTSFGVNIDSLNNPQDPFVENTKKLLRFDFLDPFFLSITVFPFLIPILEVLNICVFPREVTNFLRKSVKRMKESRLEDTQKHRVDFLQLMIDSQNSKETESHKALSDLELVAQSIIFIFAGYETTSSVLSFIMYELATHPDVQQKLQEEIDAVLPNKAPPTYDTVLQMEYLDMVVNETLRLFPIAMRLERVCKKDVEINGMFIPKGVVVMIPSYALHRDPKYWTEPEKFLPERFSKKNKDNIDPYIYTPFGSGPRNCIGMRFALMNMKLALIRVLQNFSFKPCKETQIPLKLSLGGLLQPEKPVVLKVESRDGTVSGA
Sequence of D(2) dopamine receptor (Homo sapiens) (P14416 whole entry): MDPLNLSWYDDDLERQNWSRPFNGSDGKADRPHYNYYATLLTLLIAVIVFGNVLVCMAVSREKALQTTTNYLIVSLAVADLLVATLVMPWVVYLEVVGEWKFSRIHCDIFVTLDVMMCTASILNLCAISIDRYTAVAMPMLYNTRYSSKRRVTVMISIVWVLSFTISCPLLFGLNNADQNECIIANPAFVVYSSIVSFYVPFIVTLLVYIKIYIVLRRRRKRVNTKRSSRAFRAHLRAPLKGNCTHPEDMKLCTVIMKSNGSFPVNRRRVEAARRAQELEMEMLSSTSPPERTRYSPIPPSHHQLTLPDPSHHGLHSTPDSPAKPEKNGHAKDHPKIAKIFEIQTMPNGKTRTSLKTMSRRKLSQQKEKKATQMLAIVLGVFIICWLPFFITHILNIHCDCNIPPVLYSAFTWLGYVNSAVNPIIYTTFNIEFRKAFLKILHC
Sequence of Cytochrome P450 2D6 (P10635 whole entry): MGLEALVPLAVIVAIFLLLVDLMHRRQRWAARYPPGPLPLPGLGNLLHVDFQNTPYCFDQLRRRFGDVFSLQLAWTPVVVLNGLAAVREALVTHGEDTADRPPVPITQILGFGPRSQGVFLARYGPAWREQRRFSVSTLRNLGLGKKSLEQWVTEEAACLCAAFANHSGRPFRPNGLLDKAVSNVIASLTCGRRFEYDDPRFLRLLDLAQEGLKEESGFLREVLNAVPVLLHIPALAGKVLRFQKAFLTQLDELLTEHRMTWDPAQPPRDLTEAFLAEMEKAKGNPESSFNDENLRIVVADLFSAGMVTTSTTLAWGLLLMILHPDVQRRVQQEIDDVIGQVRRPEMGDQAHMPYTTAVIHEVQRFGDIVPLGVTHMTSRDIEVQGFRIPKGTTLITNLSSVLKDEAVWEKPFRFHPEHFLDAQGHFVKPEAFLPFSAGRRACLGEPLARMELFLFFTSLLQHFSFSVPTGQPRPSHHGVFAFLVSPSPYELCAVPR
Sequence of Voltage-gated inwardly rectifying potassium channel KCNH2 (Q12809 whole entry): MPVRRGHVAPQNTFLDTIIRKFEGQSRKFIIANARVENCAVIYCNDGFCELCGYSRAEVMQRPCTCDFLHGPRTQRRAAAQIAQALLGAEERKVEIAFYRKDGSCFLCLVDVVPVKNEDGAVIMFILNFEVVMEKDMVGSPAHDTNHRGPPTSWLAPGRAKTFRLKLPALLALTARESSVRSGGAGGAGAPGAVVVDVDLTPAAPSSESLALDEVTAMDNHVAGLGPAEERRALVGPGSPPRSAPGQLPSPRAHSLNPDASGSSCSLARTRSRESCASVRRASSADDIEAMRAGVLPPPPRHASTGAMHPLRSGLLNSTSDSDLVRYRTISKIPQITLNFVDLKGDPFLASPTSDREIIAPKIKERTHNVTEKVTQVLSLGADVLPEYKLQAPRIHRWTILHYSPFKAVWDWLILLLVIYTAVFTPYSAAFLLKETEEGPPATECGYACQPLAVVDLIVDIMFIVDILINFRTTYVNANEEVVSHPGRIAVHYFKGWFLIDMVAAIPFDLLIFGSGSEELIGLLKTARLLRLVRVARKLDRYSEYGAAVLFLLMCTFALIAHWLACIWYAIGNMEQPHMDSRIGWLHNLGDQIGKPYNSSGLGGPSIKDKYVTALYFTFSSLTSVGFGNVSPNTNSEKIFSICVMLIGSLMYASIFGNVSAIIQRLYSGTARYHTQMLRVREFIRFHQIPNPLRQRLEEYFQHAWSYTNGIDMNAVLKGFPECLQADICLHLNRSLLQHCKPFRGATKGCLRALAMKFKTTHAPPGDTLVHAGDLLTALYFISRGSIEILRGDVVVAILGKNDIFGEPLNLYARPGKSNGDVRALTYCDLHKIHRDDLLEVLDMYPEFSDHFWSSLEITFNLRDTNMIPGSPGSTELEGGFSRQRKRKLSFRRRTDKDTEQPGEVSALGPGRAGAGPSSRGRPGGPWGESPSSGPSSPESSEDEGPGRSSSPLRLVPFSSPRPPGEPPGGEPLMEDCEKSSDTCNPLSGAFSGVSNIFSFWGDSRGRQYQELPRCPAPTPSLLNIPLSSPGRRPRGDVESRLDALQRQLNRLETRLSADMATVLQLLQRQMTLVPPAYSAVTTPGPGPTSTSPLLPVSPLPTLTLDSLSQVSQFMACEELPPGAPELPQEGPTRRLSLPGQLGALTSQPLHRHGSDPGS
Sequence of Cytochrome P450 2C19 (P33261 whole entry): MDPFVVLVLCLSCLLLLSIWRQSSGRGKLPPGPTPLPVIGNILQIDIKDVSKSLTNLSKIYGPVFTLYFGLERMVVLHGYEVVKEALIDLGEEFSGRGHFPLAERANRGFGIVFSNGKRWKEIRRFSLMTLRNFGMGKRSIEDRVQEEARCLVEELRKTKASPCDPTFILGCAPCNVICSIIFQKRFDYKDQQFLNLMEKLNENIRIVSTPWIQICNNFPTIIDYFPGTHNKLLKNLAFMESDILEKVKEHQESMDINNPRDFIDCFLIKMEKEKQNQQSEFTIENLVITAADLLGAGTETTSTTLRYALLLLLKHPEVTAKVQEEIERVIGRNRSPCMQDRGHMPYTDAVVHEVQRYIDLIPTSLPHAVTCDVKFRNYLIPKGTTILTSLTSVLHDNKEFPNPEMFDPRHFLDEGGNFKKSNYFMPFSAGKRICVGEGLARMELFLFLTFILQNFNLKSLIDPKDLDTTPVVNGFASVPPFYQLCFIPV

Structure (SMILES): CC1=NC=C(Cl)C(c2sc3ccccc3c2C)N1 (centres undefined)
Activity (Mus musculus [1]): Active

Structure (SMILES): Cc1sc2ccccc2c1C1C=CN=CN1.Cl (centres undefined)
minimal effective dose (Mus musculus [2]): 3 mg/kg

Structure (SMILES): Cc1sc2ccccc2c1C1NC=Nc2cc(F)ccc21.Cl (centres undefined)
minimal effective dose (Mus musculus [2]): 30 mg/kg

Structure (SMILES): Cc1sc2cc(Cl)ccc2c1C1C=CN=CN1.Cl (centres undefined)
minimal effective dose (Mus musculus [2]): 30 mg/kg

Structure (SMILES): Cc1csc(C2C=CN=CN2)c1C.Cl (stereo in doubt; 12b)
MED (Mus musculus [2]): 30 mg/kg

Structure (SMILES): Cc1sc2ccccc2c1C1C=CN=CN1C.Cl (centres undefined)
minimal effective dose (Mus musculus [2]): 30 mg/kg

Structure (SMILES): Cc1sc2cccc(F)c2c1C1C=CN=CN1.Cl (centres undefined)
minimal effective dose (Mus musculus [2]): 3 mg/kg

Structure (SMILES): Cc1csc(-c2ccncn2)c1C
Activity (Mus musculus [3]): Active

Structure (SMILES): Cc1c(F)sc(C2C=CN=CN2)c1C.Cl (centres undefined)
minimal effective dose (Mus musculus [2]): 10 mg/kg

Structure (SMILES): CC1=CN=CNC1c1sc2ccccc2c1C (centres undefined)
Activity (Mus musculus [1]): Active

IC50 (Cytochrome P450 3A4): 19.8 µM | inhibition [4]: inactive | fraction unbound at 5 µM [6]: 0.3 | half-life at 3 µM [7]: 48 min | IC50 (Cytochrome P450 2C19): 12.7 µM | IC50 (Cytochrome P450 2D6): 6.3 µM | fraction unbound at 5 µM [9]: 0.24 | half-life at 3 µM [10]: 39 min | half-life at 3 µM [11]: 155 min | IC50 (CYP1A): > 25 µM | IC50 (Cytochrome P450 2C9): > 25 µM
Structure (SMILES): Cc1cc(C2C=CN=CN2)c(C)s1.Cl (racemic)
IC50 [5]: > 25 µM | Activity (Mus musculus [8]): >95% | Activity (Mus musculus [1]): 40%

Structure (SMILES): Cc1sc2c(c1C1C=CN=CN1)CCCC2.Cl (centres undefined)
minimal effective dose (Mus musculus [2]): 10 mg/kg

Structure (SMILES): Cc1c(C2C=CN=CN2)sc2ccccc12 (centres undefined)
Activity (Mus musculus [1]): Active

Structure (SMILES): Cc1sc2c(Cl)cccc2c1C1C=CN=CN1.Cl (centres undefined)
minimal effective dose (Mus musculus [2]): 30 mg/kg

Structure (SMILES): Clc1c(C2C=CN=CN2)sc2ccccc12 (centres undefined)
Activity (Mus musculus [1]): Active

Structure (SMILES): Cc1csc(C2C=CN=CN2)c1C (stereo in doubt; 12a)
Activity (Mus musculus [3]): Active
